# Reference: patent publication US12029800B2, “Composite particles including anionic polymer and cationic polymer or peptide, and method for producing composite particles” (POLA CHEMICAL INDUSTRIES, INC., priority 2016, dated 2024)
# Experiment: Test Example 3: particle diameter of composite particles after adding PBS (imitating the inside of the living body)
# Assay type: physicochemical
# Conditions: PBS 100% (the same environment as the inside of the skin), FIG. 1
# Protocol: An aqueous solution including a composite particle of sodium hyaluronate and a cationic polymer that was each of a primary amine and a quaternary ammonium was prepared in a similar manner as in Test Example 1.
# By adding a PBS buffer solution constituted of the ions that are universally found in the living body into an aqueous solution of the prepared composite particles, it was investigated how the composite particles under the environment imitating the inside environment of the living body behaved.
# Specifically, PBS was added into an aqueous solution of the prepared composite particles, and the particle diameter of a composite particle in the aqueous solution was measured in a similar manner as in Test Example 2.
row,Substance,Particle diameter of the composite particle with sodium hyaluronate at addition amount of PBS 100%
1,Polylysine,particle diameter was not able to be almost measured
2,Protamine,particle diameter was not able to be almost measured
